In ChEMBL document CHEMBL2062513, “Pd-mediated functionalization of polysubstituted pyrroles: their evaluation as potential inhibitors of PDE4” (Bioorg Med Chem Lett, 2012):

Experiments:
[1] = molecular target: 3',5'-cyclic-AMP phosphodiesterase 4B (Homo sapiens) (UniProt Q07343); assay: Inhibition of recombinant His-tagged PDE4B expressed in Sf9 cells at 30 uM preincubated for 15 mins before cAMP addition measured after 1 hr by luminescence assay
[2] = molecular target: 3',5'-cyclic-AMP phosphodiesterase 4B (Homo sapiens) (UniProt Q07343); assay: Inhibition of recombinant His-tagged PDE4B expressed in Sf9 cells preincubated for 15 mins before cAMP addition measured after 1 hr by luminescence assay

3',5'-cyclic-AMP phosphodiesterase 4B (Homo sapiens), sequence (Q07343 whole entry): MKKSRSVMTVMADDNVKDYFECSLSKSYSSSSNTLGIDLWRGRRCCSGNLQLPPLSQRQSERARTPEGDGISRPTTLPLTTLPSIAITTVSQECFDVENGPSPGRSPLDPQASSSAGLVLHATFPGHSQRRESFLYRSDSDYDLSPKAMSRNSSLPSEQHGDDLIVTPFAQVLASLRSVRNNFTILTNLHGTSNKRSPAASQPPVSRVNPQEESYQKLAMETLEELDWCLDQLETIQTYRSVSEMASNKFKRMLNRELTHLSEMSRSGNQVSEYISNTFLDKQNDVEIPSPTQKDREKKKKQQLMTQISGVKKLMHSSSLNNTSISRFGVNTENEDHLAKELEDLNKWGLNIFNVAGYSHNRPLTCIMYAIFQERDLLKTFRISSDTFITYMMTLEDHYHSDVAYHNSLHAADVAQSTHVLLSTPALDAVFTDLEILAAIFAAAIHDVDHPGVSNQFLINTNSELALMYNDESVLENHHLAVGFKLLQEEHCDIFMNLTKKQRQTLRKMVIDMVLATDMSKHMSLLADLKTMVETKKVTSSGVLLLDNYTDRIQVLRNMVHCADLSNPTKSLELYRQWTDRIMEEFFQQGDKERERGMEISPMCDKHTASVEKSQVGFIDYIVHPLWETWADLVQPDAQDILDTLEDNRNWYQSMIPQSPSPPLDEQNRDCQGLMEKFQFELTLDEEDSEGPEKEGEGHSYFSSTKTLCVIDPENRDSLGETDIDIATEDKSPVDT

| Compound | inhibition [1] | inhibition [2] |
| --- | --- | --- |
| CCOC(=O)c1cc(-c2ccccc2)n(-c2ccc(/C=C/C(=O)OC)cc2)c1C(=O)c1ccccc1 | 45.2% |  |
| CCOC(=O)c1cc(-c2ccccc2)n(-c2ccc(/C=C/C(=O)OC(C)(C)C)cc2)c1C(=O)c1ccccc1 | 36.1% |  |
| CCOC(=O)c1cc(-c2ccccc2)n(-c2ccc(-c3ccc(OC)cc3)cc2)c1C(=O)c1ccccc1 | 24.8% |  |
| CCOC(=O)c1cc(-c2ccccc2)n(-c2ccc(/C(C)=C/C(=O)OC)cc2)c1C(=O)c1ccccc1 | 76.7% | Dose-dependent effect |

Other lines, results leading:

| inhibition [1] | inhibition [2] | Compound |
| --- | --- | --- |
| 74.7% | Dose-dependent effect | CCOC(=O)/C=C/c1ccc(-n2c(-c3ccccc3)cc(C(=O)OCC)c2C(=O)c2ccccc2)cc1 |
| 22.1% |  | CCCCCCC#Cc1ccc(-n2c(-c3ccccc3)cc(C(=O)OCC)c2C(=O)c2ccccc2)cc1 |
